Format in all cases: cell-based, human
Experiment [1] relates to MIA PaCa-2 cells. The experiment in a line: AmpliSeq transcriptome (RNAseq) analysis. Particulars: LIF 10 ng/mL + BAR502 10 µM versus LIF, 24 h. On the procedure: MIA PaCa-2 cells were cultured in 6-well tissue culture plate (cell density 1.5 * 10^6/well) in DMEM complete medium. After serum starving, cells were exposed with LIF (10 ng/mL) alone or plus BAR502 (10 µM) or left untreated for 24h. High-quality RNA was extracted from MIA PaCa-2 cells using the PureLink™ RNA Mini Kit (Thermo Fisher Scientific), according to the manufacturer’s instructions. RNA quality and quantity were assessed with the Qubit® RNA HS Assay Kit and a Qubit 3.0 fluorometer followed by agarose gel electrophoresis. Libraries were generated using the Ion AmpliSeq™ Transcriptome Human Gene Expression Core Panel and Chef-Ready Kit (Thermo Fisher Scientific), according to the manufacturer’s instructions. Briefly, 10 ng of RNA was reverse transcribed with SuperScript™ Vilo™ cDNA Synthesis Kit (Thermo Fisher Scientific, Waltham, MA) before library preparation on the Ion Chef™ instrument (Thermo Fisher Scientific, Waltham, MA). The resulting cDNA was amplified to prepare barcoded libraries using the Ion Code™ PCR Plate, and the Ion AmpliSeq™ Transcriptome Human Gene Expression Core Panel (Thermo Fisher Scientific, Waltham, MA), Chef-Ready Kit, according to the manufacturer’s instructions. Barcoded libraries were combined to a final concentration of 100 pM, and used to prepare Template-Positive Ion Sphere™ (Thermo Fisher Scientific, Waltham, MA) Particles to load on Ion 540™ Chips, using the Ion 540™ Kit-Chef (Thermo Fisher Scientific, Waltham, MA). Sequencing was performed on an Ion S5™ Sequencer with Torrent Suite™ Software v6 (Thermo Fisher Scientific). The analyses were performed with a range of fold <−2 and >+2 and a p value < 0.05, using Transcriptome Analysis Console Software (version 4.0.2), certified for AmpliSeq analysis (Thermo-Fisher). The transcriptomic data have been deposited as dataset on Mendeley data repository […].

The test system of experiment [2] is MIA PaCa-2 cells. The experiment in a line: Annexin V flow cytometry (apoptosis). Particulars: BAR502 10-20 µM + LIF 10 ng/mL; p<0.05. As for the experimental part: MIA-PaCa2 cells were seeded in 6-well tissue culture plate (cell density 700 × 10^3/well) and cultured as specified above. Cells were serum-starved for 8 h and then incubated with LIF (10 ng/mL) alone or plus BAR502 (10, 20 µM) or a vehicle for 24 h. The intracellular flow cytometry staining for Ki-67 was performed using the following reagents: Ki-67 Monoclonal Antibody (SolA15), Alexa Fluor™ 488, (eBioscience™, San Diego, California, USA) and 7-AAD to characterize the cell cycle phases G0-G1 and S-G2-M. Before intracellular IC-FACS, staining cells were fixed for 30 min in the dark using IC Fixation buffer (eBioscience™) and then permeabilized using Permeabilization buffer (10X) (eBioscience™). The staining for Annexin V was performed using the Annexin V Antibody (A13199, Thermofisher Scientific, Waltham, MA, USA) to evaluate the apoptosis rate. Briefly, 5 μL of Annexin V Antibody was added to each 100 μL of cell suspension, and cells were incubated the at room temperature for 15 min. Flow cytometry analyses were carried out using a 3-laser standard configuration ATTUNE NxT (LIFe Technologies, Carlsbad, CA, USA). Data were analyzed using FlowJo software (TreeStar) and the gates set using a fluorescence minus-one (FMO) control strategy. […] The channel in which the conjugated Ab is missing is the one for which the fluorescence minus one provides a gating control.

In experiment [3] the test system is MIA PaCa-2 cells. In words: Real-time PCR and Western blot of EMT markers, CXCR4 and STAT3 phosphorylation. On the procedure: The RNA was extracted from cell lines using and Direct-zol™ RNA MiniPrep w/Zymo-Spin™ IIC Columns (Zymo Research, Irvine, CA, USA)., according to the manufacturer’s protocol as described previously ([20]). After purification from genomic DNA by DNase-I treatment (ThermoFisher Scientific, Waltham, MA USA), 2 µg of RNA from each sample was reverse-transcribed using Kit FastGene Scriptase Basic (Nippon Genetics, Mariaweilerstraße, Düren, Germania) in a 20 μL reaction volume. Finally, 50 ng cDNA were amp LIFied in a 20 μL solution containing 200 nM of each primer and 10 μL of SYBR Select Master Mix (ThermoFisher Scientific). All reactions were performed in triplicate, and the thermal cycling conditions were as follows: 3 min at 95°C, followed by 40 cycles of 95°C for 15 s, 56°C for 20 s and 72°C for 30 s, using a Step One Plus machine (Applied Biosystem). The relative mRNA expression was calculated accordingly to the 2^-ΔCt method. Primers used in this study were designed using the PRIMER3 (http://frodo.wi.mit.edu/primer3/) software using the NCBI […]. RT-PCR primers used in this study for human sample and human cell lines were as follow [forward (for) and reverse (rev)]:
MIA-PaCa 2 cells were seeded in 6-well tissue culture plate (cell density 1.5 * 10^6/well) in DMEM complete medium. After serum starving, cells were incubated with LIF (10 ng/mL) alone or plus BAR502 (10 µM) for 10 min. Total lysates were prepared by homogenization of MIA-PaCa2 cells in RIPA buffer containing phosphatase and protease inhibitors. […] Primary Abs were detected with the HRP-labeled secondary Abs. […] Quantitative densitometry analysis was performed using ImageJ software. The degree of STAT3 phosphorylation was calculated as the ratio between the densitometry readings of […] p-STAT3/STAT3.

`CC[C@H]1[C@@H](O)C2C3CC[C@H]([C@H](C)CCO)[C@@]3(C)CCC2[C@@]2(C)CC[C@@H](O)C[C@@H]12` (some centres unmarked) [BAR502]: in the experiment with MIA PaCa-2 cells [1], the “CCND2 expression Fold Change (FC)” value is on record as 16,13, the “KIF20A expression Fold Change (FC)” value is -17,49, the “RRM2 expression Fold Change (FC)” value is reported as -14,34 and the “SESN2 expression Fold Change (FC)” value is given as 15,84. Moreover, in the experiment with MIA PaCa-2 cells [1], the “SLC7A11 expression Fold Change (FC)” value is listed as 35,54, the “TNFRSF1B (TNFR2) expression Fold Change (FC)” value was -11,72 and the “TOP2A expression Fold Change (FC)” value was -9,61. For the same compound, the “effect on percentage of Annexin V+ cells” value in the experiment with MIA PaCa-2 cells [2] is recorded as “increased the percentage of Annexin V^+ cells”. For the same compound, the “effect on STAT3 phosphorylation caused by LIF” value in the experiment with MIA PaCa-2 cells [3] (BAR502 10 µM + LIF 10 ng/mL, Western blot) is “significantly attenuated STAT3 phosphorylation”. Besides, the “effect on vimentin expression (RNA and protein) induced by LIF” value in the experiment on MIA PaCa-2 cells [3] (BAR502 10-20 μM + LIF 10 ng/mL) is listed as “reversed the induction of vimentin expression”. Besides, the “effect on CXCR4 mRNA expression increased by LIF” value in the experiment with MIA PaCa-2 cells [3] (BAR502 + LIF 10 ng/mL, 24 h) is recorded as “reversed the mRNA expression”.

Values taken from publication PMC10043345, “Discovery of BAR502, as potent steroidal antagonist of leukemia inhibitory factor receptor for the treatment of pancreatic adenocarcinoma” (Frontiers in Oncology, 2023).
